Results as given in BindingDB's records for doi:10.1016/j.ejphar.2004.01.015 (Abbott Laboratories, 2004).
pKi: −log10 of the molar value. “And” between values parts separate entries of the source, which are not always exact repeats. Identical values can stand only once.

What was measured:
Histamine H1 receptor = Histamine H1 receptor (Homo sapiens, UniProt P35367)
Histamine H2 receptor = Histamine H2 receptor (Homo sapiens, UniProt P25021)
Hrh3 protein = Hrh3 protein (Rattus norvegicus, UniProt Q5PPG3)
Chain of Hrh3 protein (Q5PPG3 whole entry): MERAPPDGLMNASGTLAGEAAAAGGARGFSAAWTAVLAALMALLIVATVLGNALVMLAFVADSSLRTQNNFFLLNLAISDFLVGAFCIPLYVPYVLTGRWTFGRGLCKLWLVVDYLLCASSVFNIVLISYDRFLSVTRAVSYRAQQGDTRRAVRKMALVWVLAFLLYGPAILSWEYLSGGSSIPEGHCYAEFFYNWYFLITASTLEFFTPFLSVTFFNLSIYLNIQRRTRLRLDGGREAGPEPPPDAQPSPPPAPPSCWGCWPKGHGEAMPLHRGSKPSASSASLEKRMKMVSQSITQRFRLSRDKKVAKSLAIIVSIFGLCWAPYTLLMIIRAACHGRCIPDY

Histamine H3 receptor = Histamine H3 receptor (Homo sapiens, UniProt Q9Y5N1)
Chain of Histamine H3 receptor (Q9Y5N1 whole entry): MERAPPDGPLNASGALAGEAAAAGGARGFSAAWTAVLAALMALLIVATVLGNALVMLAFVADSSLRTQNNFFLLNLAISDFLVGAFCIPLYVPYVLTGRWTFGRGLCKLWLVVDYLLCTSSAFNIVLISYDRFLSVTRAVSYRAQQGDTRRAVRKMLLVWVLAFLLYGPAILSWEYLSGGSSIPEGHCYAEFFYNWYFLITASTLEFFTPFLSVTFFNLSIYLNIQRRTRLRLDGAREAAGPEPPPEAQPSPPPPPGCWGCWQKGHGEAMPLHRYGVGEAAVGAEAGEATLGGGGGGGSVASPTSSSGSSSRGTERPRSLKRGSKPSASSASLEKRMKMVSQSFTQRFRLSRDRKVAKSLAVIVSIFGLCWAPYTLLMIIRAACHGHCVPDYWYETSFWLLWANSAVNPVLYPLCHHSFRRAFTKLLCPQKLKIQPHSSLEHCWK

Histamine H4 receptor = Histamine H4 receptor (Homo sapiens, UniProt Q9H3N8)
Chain of Histamine H4 receptor (Q9H3N8 whole entry): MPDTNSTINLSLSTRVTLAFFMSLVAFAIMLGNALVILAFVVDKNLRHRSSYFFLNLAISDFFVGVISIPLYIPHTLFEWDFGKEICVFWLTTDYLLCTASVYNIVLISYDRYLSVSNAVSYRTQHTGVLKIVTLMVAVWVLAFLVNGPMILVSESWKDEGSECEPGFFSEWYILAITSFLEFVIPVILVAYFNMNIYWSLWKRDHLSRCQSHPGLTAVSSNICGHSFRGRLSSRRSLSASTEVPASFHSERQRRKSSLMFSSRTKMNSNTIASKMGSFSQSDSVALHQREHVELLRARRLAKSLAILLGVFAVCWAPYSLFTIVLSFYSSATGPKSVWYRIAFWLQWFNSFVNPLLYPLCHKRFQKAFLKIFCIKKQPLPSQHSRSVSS

Chain of Histamine H1 receptor (P35367 whole entry): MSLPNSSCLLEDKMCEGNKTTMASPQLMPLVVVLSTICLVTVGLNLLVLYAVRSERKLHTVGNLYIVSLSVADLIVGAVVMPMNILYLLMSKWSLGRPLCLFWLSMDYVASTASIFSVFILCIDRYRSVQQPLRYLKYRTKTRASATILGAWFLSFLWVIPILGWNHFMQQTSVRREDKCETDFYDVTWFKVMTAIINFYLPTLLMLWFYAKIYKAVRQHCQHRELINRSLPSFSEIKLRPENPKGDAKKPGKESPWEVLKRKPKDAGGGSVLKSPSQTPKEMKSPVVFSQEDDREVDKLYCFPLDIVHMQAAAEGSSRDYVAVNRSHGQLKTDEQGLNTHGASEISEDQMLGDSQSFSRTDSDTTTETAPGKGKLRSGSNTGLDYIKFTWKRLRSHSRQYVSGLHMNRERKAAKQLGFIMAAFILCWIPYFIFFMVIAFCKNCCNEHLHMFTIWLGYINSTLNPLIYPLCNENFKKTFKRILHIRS
Chain of Histamine H2 receptor (P25021 whole entry): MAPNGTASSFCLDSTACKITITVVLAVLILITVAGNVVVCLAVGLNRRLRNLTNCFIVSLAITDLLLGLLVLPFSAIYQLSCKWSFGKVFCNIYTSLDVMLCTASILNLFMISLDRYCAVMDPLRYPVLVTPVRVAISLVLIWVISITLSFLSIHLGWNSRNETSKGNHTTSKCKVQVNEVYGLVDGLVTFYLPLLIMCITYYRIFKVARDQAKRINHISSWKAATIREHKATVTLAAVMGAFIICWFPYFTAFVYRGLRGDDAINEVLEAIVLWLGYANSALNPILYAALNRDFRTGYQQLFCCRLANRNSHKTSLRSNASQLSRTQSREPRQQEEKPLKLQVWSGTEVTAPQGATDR

Row | SMILES | pKi (Histamine H1 receptor) | pKi (Histamine H2 receptor) | pKi (Hrh3 protein) | pKi (Histamine H3 receptor) | pKi (Histamine H4 receptor)
1 | O=C(c1ccc(OCCCc2cnc[nH]2)cc1)C1CC1 | < 5.00 | < 5.00 | 9.18 and 9.37 | – | –
2 | NCCc1c[nH]cn1 [[3H]histamine] | – | – | 8.31 and 8.58 | – | –
3 | CN(C)[C@@H]1CCN(CCCOc2ccc(-c3ccc(C#N)cc3)cc2)C1 [A-331440] | – | < 5.00 | 7.66 and 8.20 | 7.64 and 8.49 | < 5.00
4 | S=C(NC1CCCCC1)N1CCC(c2cnc[nH]2)CC1 | < 5.00 | < 5.00 | 8.12 and 8.49 | – | –
5 | O=C(CCCCC1CCCCC1)N1CCC(c2c[nH]cn2)CC1 | 5.59 | 5.14 | 7.59 | 6.30 and 6.87 | 6.13
